US20190224186A1, “TREATMENT OF MULTIPLE SCLEROSIS WITH CHS-131” (InteKrin Therapeutics, Inc., priority 2016, published 2019)
Where “and” joins values, the source holds several entries; their conditions need not be identical. Equal values may be shown once.

What was measured:
Assay type in all cases: in vivo, human
[1] = system: MS patients in the relapsing and remitting course of the disease (RRMS); experiment: Phase 2 trial: Expanded Disability Status Scale (EDSS) score
Source text: Several methods are used to diagnose and determine the impact of multiple sclerosis on patients. The McDonald criteria are used to diagnose multiple sclerosis on clinical grounds and MRI lesions consistent with MS. The Expanded Disability Status Scale (EDSS) quantifies disability in eight Functional Systems (FS) and allows neurologists to assign a Functional System Score (FSS) in each of these. The Multiple Sclerosis Functional Composite (MSFC) is a three-part, standardized, quantitative, assessment of function. The three components of the MSFC measure leg function/ambulation, arm/hand function, and cognitive function. The EDSS and MSFC scores are useful to determine if a drug improves or prevents loss of cognitive or physical function of a patient with MS. A drug is said to reduce MS-related dysfunction if it reduces a patient's EDSS or MSFC score. The study enrolled MS patients in the relapsing and remitting course of the disease (RRMS) who had been diagnosed within ≤3 years of enrollment. Patients had to be treatment-naïve, have ≥1 gadolinium-positive lesion within 12 months of enrollment, and have an Expanded Disability Status Score (EDSS) of 0-6 at screening. Part 1 was a double-blind, parallel-group, 6-month study. Patients were randomized to oral CHS-131 at 3 mg or 1 mg or placebo in a 1:1:1 ratio at 21 sites in Russia. Monthly MRIs were read in a blinded fashion at the Buffalo Neuroimaging and Analysis Center, Buffalo, N.Y., USA. Part 2 is an open label, 6-month, safety extension study, in which all subjects transition to 1 mg CHS-131 daily, to evaluate clinical response, CE lesions on MM, and safety. The EDSS scores are reported for the full analysis population in the table below.

[2] = system: MS patients in the relapsing and remitting course of the disease (RRMS); experiment: Trend line of change in cortical volume versus EDSS scores; conditions: 6-month time point
Source text: To evaluate the connection between cortical volume loss and dysfunction, the reduction in volume loss was compared to EDSS scores of the MS patients. FIGS. 5 and 6 show the relationship between the change in cortical volume and EDSS scores at 3 months and 6 months, respectively.

[3] = system: MS patients in the relapsing and remitting course of the disease (RRMS); experiment: Phase 2 trial: number of new gadolinium contrast-enhancing (CE) T1-weighted lesions on monthly MRI over 6 months; conditions: for LSMean cumulative number of new CE lesions over 6 months / mean cumulative number of new CE lesions over 6 months: n=70
Procedure: A Phase 2, randomized, double-blind, placebo-controlled, multi-center clinical trial of CHS-131 for the treatment of multiple sclerosis (MS) was conducted. The primary endpoint was the number of new gadolinium contrast-enhancing (CE) T1-weighted lesions on monthly MRI over 6 months.
The study enrolled MS patients in the relapsing and remitting course of the disease (RRMS) who had been diagnosed within ≤3 years of enrollment. Patients had to be treatment-naïve, have ≥1 gadolinium-positive lesion within 12 months of enrollment, and have an Expanded Disability Status Score (EDSS) of 0-6 at screening.
Part 1 was a double-blind, parallel-group, 6-month study. Patients were randomized to oral CHS-131 at 3 mg or 1 mg or placebo in a 1:1:1 ratio at 21 sites in Russia. Monthly MRIs were read in a blinded fashion at the Buffalo Neuroimaging and Analysis Center, Buffalo, N.Y., USA. Part 2 is an open label, 6-month, safety extension study, in which all subjects transition to 1 mg CHS-131 daily, to evaluate clinical response, CE lesions on MM, and safety.
The mean cumulative number of new CE lesions over 6 months was 4.2 (LSMean 3.10) for 3 mg CHS131 (n=70), 7.6 (LSMean 5.15) for 1 mg CHS131 (n=70), and 7.8 (LSMean 6.49) for placebo (n=69). The response was dose-dependent. […] FIG. 2 provides a graphical representation of these LSMean data.
Upon completion of the six month trial period described in Example 1, the number of new gadolinium CE T1-weighted lesions was evaluated in the entire study population and separately in men and women.
The ratios of changes in lesions were evaluated by a least square means (LSMeans) analysis. In such an analysis, multiple factors including both categorical (e.g. treatment, center, gender) and continuous covariates (e.g. baseline measures) can be accounted for.

O=S(=O)(Nc1cc(Cl)c(Oc2cnc3ccccc3c2)c(Cl)c1)c1ccc(Cl)cc1Cl [CHS-131]
Month 3 EDSS % change from baseline ([1]; 1 mg): −0.49% | Month 6 EDSS % change from baseline ([1]; 1 mg): −2.94% | Month 3 EDSS Mean (SD) ([1]; 1 mg, n=74): 2.03 (0.961) | Month 6 EDSS Mean (SD) ([1]; 1 mg, n=74): 1.98 (0.974) | Month 3 EDSS % change from baseline ([1]; 3 mg): −0.46% | Month 6 EDSS % change from baseline ([1]; 3 mg): −4.59% | Month 6 EDSS Mean (SD) ([1]; 3 mg, n=73): 2.08 (0.846) | Month 3 EDSS Mean (SD) ([1]; 3 mg, n=74): 2.17 (0.945) | trend line slope, change in cortical volume vs EDSS score ([2]; 1 mg): −0.138 | trend line slope, change in cortical volume vs EDSS score ([2]; 3 mg): 0.080 | incidence of new CE lesions lower than with placebo ([3]; 1 mg, 6 months): 21% | LSMean cumulative number of new CE lesions over 6 months ([3]; 1 mg): 5.15 | mean cumulative number of new CE lesions over 6 months ([3]; 1 mg): 7.6 | LSMean cumulative number of new CE lesions over 6 months ([3]; 3 mg): 3.10 | mean cumulative number of new CE lesions over 6 months ([3]; 3 mg): 4.2 | reduction of incidence of new CE lesions versus placebo ([3]; 3 mg, whole population, 6 months, p=0.003): 52% and 53% | LSMean # of Lesions (new gadolinium CE T1-weighted, 6 months) ([3]; Female, 1 mg): 5.48 | Mean # of Lesions (new gadolinium CE T1-weighted, 6 months, observed data) ([3]; Female, 1 mg): 8.01 | Percent Change from Placebo (observed mean # of lesions) ([3]; Female, 1 mg): 3.2% | Percent Change from Placebo (inverse of ratio of LSMeans treatment:placebo) ([3]; Female, 1 mg, p 0.8481): −5% (0.8481) | LSMean # of Lesions (new gadolinium CE T1-weighted, 6 months) ([3]; Female, 3 mg): 4.18 | Mean # of Lesions (new gadolinium CE T1-weighted, 6 months, observed data) ([3]; Female, 3 mg): 4.97 | Percent Change from Placebo (observed mean # of lesions) ([3]; Female, 3 mg): −36.0% | Percent Change from Placebo (inverse of ratio of LSMeans treatment:placebo) ([3]; Female, 3 mg, p 0.2516): −28% (0.2516) | LSMean # of Lesions (new gadolinium CE T1-weighted, 6 months) ([3]; Male & Female, 1 mg): 5.15 | Mean # of Lesions (new gadolinium CE T1-weighted, 6 months, observed data) ([3]; Male & Female, 1 mg): 7.19 | Percent Change from Placebo (observed mean # of lesions) ([3]; Male & Female, 1 mg): −9.6% | Percent Change from Placebo (inverse of ratio of LSMeans treatment:placebo) ([3]; Male & Female, 1 mg, p 0.3049): −21% (0.3049) | LSMean # of Lesions (new gadolinium CE T1-weighted, 6 months) ([3]; Male & Female, 3 mg): 3.10 | Mean # of Lesions (new gadolinium CE T1-weighted, 6 months, observed data) ([3]; Male & Female, 3 mg): 4.51 | Percent Change from Placebo (observed mean # of lesions) ([3]; Male & Female, 3 mg): −43.3% | Percent Change from Placebo (inverse of ratio of LSMeans treatment:placebo) ([3]; Male & Female, 3 mg, p 0.0016): −52% (0.0016) | LSMean # of Lesions (new gadolinium CE T1-weighted, 6 months) ([3]; Male, 1 mg): 4.31 | Mean # of Lesions (new gadolinium CE T1-weighted, 6 months, observed data) ([3]; Male, 1 mg): 5.93 | Percent Change from Placebo (observed mean # of lesions) ([3]; Male, 1 mg): −30.4% | Percent Change from Placebo (inverse of ratio of LSMeans treatment:placebo) ([3]; Male, 1 mg, p 0.0827): −48% (0.0827) | LSMean # of Lesions (new gadolinium CE T1-weighted, 6 months) ([3]; Male, 3 mg): 2.42 | Mean # of Lesions (new gadolinium CE T1-weighted, 6 months, observed data) ([3]; Male, 3 mg): 3.81 | Percent Change from Placebo (observed mean # of lesions) ([3]; Male, 3 mg): −55.4% | Percent Change from Placebo (inverse of ratio of LSMeans treatment:placebo) ([3]; Male, 3 mg, p 0.0012): −71% (0.0012) | reduction of new T1 lesions in the study analysis ([3]; men, 3 mg per day): 71%
